Test results taken from patent publication US9301989B2, “hTRPA1-activating composition and use thereof” (KOREA FOOD RESEARCH INSTITUTE, priority 2011, dated 2016).
Entries after “also recorded” stand apart in the source; their conditions may differ.

What was measured:
hTRPA1 [1] = target: T1, hTRPA1 (Homo sapiens, UniProt O75762); assay: Evaluation of hTRPA1 action using Ca2+ imaging (Fura-2/AM) in cell lines stably expressing hTRPA1; assay type: cell-based; details: for calcium release in hTRPA1 stably expressing cell line: 50 μM, FIG. 2; for activity inhibition by ruthenium red (RR): treatment with cationic channel blocker RR
T1 construct: The hTRPA1-expressing gene (coding region) was cloned; expressed in transfected cells
T1 sequence (O75762 whole entry): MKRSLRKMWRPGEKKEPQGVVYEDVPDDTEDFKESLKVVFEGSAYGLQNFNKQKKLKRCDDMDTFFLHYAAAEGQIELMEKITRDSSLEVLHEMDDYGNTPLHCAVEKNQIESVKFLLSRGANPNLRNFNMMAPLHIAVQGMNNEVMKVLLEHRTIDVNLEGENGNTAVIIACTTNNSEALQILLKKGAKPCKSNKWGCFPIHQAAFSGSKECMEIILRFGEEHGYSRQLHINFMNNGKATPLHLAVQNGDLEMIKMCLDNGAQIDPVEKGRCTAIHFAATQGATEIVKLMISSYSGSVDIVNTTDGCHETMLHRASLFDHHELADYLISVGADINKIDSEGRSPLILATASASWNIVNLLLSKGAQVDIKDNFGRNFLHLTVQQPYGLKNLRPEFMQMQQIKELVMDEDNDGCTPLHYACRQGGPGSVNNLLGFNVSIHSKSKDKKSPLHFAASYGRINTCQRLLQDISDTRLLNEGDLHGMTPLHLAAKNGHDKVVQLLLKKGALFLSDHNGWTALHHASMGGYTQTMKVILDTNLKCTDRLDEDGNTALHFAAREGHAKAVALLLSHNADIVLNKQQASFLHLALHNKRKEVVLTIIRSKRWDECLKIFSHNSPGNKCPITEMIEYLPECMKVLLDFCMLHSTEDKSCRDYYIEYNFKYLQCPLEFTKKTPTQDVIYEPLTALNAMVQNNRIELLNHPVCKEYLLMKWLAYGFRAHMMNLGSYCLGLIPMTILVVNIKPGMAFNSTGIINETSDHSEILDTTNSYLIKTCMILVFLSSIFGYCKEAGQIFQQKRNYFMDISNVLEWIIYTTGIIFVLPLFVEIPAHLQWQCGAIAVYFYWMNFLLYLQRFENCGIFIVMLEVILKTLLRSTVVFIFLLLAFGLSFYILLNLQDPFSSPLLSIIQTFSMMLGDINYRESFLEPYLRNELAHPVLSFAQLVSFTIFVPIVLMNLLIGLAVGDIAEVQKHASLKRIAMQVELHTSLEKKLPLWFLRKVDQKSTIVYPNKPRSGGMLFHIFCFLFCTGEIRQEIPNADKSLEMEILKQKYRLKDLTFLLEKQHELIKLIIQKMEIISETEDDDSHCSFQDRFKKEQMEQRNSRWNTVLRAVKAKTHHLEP
Protocol: (§1) The hTRPA1-expressing gene (coding region) was cloned according to the manufacturer's protocol for the pcDNA5/FRT Complete System (Invitrogen). In order to verify whether the hTRPA1 gene was accurately inserted into the vector, sequencing was carried out using the ABI 130 or 310 DNA generatic analyzer (Applied Biosystems), and the constructed vector and Pog44 were transduced into Flin-in 293 cells using Lipofectamine 2000 (Invitrogen). After 24 hours, the cells were optionally treated with 100 μg/ml of hygromycin-B (Invitrogen), following by further culturing for 2-3 weeks. Then, only antibiotic-resistant cells were collected, and used for measuring cellular responses of hTRPA1, followed by repeated culturing. The cells were cultured in Dulbecco's modified Eagle's medium (DMEM) supplemented with 10% fetal bovine serum.
The Ca^2+ imaging was conducted to measure hTRPA1 activation. Fura-2/AM (Molecular Probes, USA) was used as a marker for measuring the change in the intracellular calcium concentration. At 20-26 hours before the analysis, cell lines stably expressing hTRPA1 were dispensed in a 96-well plate. The cells were cultured in a solution added with Fura-2/AM (5 μM) at 27° C. for 30 minutes. The cells were washed with an assay buffer (140 mM NaCl, 10 mM HEPES, 2 mM CaCl2.2H2O, 2 mM EGTA, 1 mM MgCl2.6H2O, 10 mM glucose, and 5 mM KCl), added with 100 μL of the assay buffer, and left at room temperature for 15 minutes. The Fura-2/AM-loaded cells were placed on a microscope, and the fluorescence absorbance was measured between 340 nm and 380 nm. The images were recorded at 3-sec intervals, and the change in the intracellular calcium concentration was analyzed using MetalFluor software (Molecular Devices, Sunnyvale, Calif., USA).

NCI-H716 cells = assay: GLP-1 secretion effect in NCI-H716 cells (GLP-1 active ELISA); assay type: cell-based, human; details: 1 hour
Description: Glucagon-like peptide-1 (GLP-1), which is the hormone secreted from the gut, is involved in an anti-diabetic action by amplifying glucose-stimulated insulin secretion and suppressing the beta-cell death. GLP-1 is also involved in an anti-obesity action by decreasing the rate of gastric emptying and suppressing the appetite. Therefore, a GLP-1 secreting material can be expected to have anti-diabetic and anti-obesity effects.
The human-derived cell line NCI-H716 cells were purchased from the American Type Culture Collection (ATCC, Manassas, Va.). This cell line corresponds to suspension cells isolated from the large-intestinal Adenocarcinoma of an adult, and has been known as a cell line that mainly secrets GLP-1. For the maintenance of proliferation and culture of the cell line, the cells were cultured in RPMI 1640 medium supplemented with 10% fetal bovine serum (FBS), 2 mM L-glutamine, 100 IU/ml penicillin, and 100 μg/ml streptomycin, and for the adherence and differentiation of cells, the Matrigel matrix (Becton Dickinson and Co., Bedford, Mass.) was coated on plates and the cells were cultured in high-glucose DMEM supplemented with 10% FBS, 2 mm L-glutamine, 100 IU/ml penicillin, and 100 μg/ml streptomycin.
The NCI-H716 cell line was cultured at 2×10^5 cells/mL in a 96-well culture plate coated with Matrigel for 3 days. On the day of the experiment, the cells were washed with 1× phosphated buffered saline (PBS). For the control group, Krebs-Ringer bicarbonate buffer (KRB, 128.8 mmol/l NaCl, 4.8 mmol/l KCl, 1.2 mmol/l KH2PO4, 1.2 mmol/l MgSO4, 2.5 mmol/l CaCl2, 5 mmol/l NaHCO3, and 10 mmol/l HEPES, 0.2% BSA, pH 7.4) was used. For the analysis, the samples of different concentrations were added thereto, followed by incubation at 37° C. for 1 hour. After the incubation, the supernatant was taken (100 μL) for GLP-1 analysis, and analyzed by using the GLP-1 active ELISA kit (EGLP-35K, Millipore) according to the manufacturer's manual. The concentration of GLP-1 was calculated based on the supplied GLP-1 standard material (pmol).

hTRPA1 [2] = target: T1, hTRPA1; assay: Measurement of intracellular Ca2+ concentration using cell-based analysis (FlexStation, Fluo-4-AM)
Protocol: as §1
The intercellular Ca^2+ concentration was measured by using FlexStation™ (Molecular Devices, Sunnyvale, Calif., USA). Cells were dispensed at 24 hours before the analysis, and treated with 5 μM Fluo-4-AM (Molecular Probes, Eugene, Oreg., USA) as a marker for measuring the change in the intracellular calcium concentration, followed by reaction at 27° C. for 30 minutes. After that, the cells were washed with an assay buffer (140 mM NaCl, 10 mM HEPES, 2 mM CaCl22H2O, 2 mM EGTA, 1 mM MgCl26H2o, 10 mM glucose, and 5 mM KCl), added with 100 μL of the assay buffer, and left at room temperature for 15 minutes. Then, each of extracts and compositions was treated and used to measure fluorescence absorbance at 486 nm (F486) and 516 nm (F516). The change in intercellular calcium concentration was represented as A relative fluorescent unit (RFU), and was analyzed by using the Softmax software (Molecular devices, USA).

[3] = Sensory test for pungent flavor; assay type: in vivo; details: 1 μM solution
Protocol: The sensory test was conducted for the pungent flavor due to coniferyl alcohol. A solution of 1 μM coniferyl alcohol was used, and the sensitivity of the pungent taste was marked in a 15-point scale (n=6).

[4] = Lacrimation test (solution sprayed onto eyes of participants); assay type: in vivo; details: 1 μM solution sprayed onto eyes
Protocol: The lacrimation test was conducted on the coniferyl alcohol. A solution of 1 μM coniferyl alcohol was used, and experiment participants were asked to write down their feeling when the solution was sprayed onto their eyes.

Row | Compound | calcium response / hTRPA1 action in hTRPA1-expressed cells (Ca2+ imaging) (hTRPA1 [1]) | calcium release in hTRPA1 stably expressing cell line (hTRPA1 [1]) | activity inhibition by HC-030031 (hTRPA1 [1]; treatment with TRPA1 antagonist HC-030031) | activity inhibition by ruthenium red (RR) (hTRPA1 [1]) | GLP-1 secretion as compared with the untreated control group (NCI-H716 cells; 500 μM) [times] | EC50 (hTRPA1 [2]; FIG. 29) [µM] | Ca2+ response inhibited by TRPA1 antagonist HC-030031 (hTRPA1 [2]; HC-030031 100 μM) | Ca2+ response inhibited by cationic channel blocker RR (hTRPA1 [2]; RR 30 μM) | taste description in sensory test [3] | intensity of pungent tastes (spicy, tingle, and tangy tastes) ([3]; 15-point scale, n=6) | ocular tears or irritation due to spray [4] | GLP-1 secretion as compared with the untreated control group (NCI-H716 cells; 3 μM) [times] | GLP-1 secretion as compared with the untreated control group (NCI-H716 cells; 10 μM or higher) [times]
1 | C=CCN=C=S [AITC, allyl isothiocyanate] | all cells were activated | calcium was released | not inhibited | most activities were inhibited | 3.9 | – | – | – | – | – | – | – | –
2 | O=CC=Cc1ccccc1 [CALD, cinnamaldehyde] | all cells were activated | calcium was released | – | most activities were inhibited | – | – | – | – | – | – | – | – | –
3 | O=C(/C=C/c1ccc(O)c(O)c1)O[C@@H]1C[C@](O)(C(=O)O)C[C@@H](O)[C@H]1O [chlorogenic acid] | no effects | – | – | – | – | – | – | – | – | – | – | – | –
4 | COc1cc(/C=C/CO)ccc1O [coniferyl alcohol, Coniferyl alcohol] | specifically acted on hTRPA1; also recorded: increased the intercellular Ca^2+ influx in a time-dependent manner | – | – | completely blocked | – | 654 | inhibited; also recorded: significantly reduced | inhibited | the remaining taste was stronger than the first taste and the tongue burns or has a pain | 11.83±1.6 | ocular pain (tingling, stinging, and dizziness) was observed | 3 | ≥ 4
